“Also recorded” adds a separate entry of the source.
How the values were obtained:
[1] = tested on: HFF-1 (Human Foreskin Fibroblasts) cells; assay: Cytotoxicity assay by MTT, HFF-1 cells; assay type: cell-based
Method: (§1) MCF-7 (Human Breast Cancer) and HFF-1 (Human Foreskin Fibroblasts) cell lines were sub-cultured in DMEM (Dullbecco's Modified Eagle Medium) supplemented with 1% of L-Glutamine, 10% of Fetal Bovine Serum as FBS (Gibco), 1% of Non-Essential Amino Acid (Gibco), and 1% of penicillin and streptomycin. The cells were cultured in a humidified CO2 incubator at 37° C. (Thermoscientific, Waltham, MA). The cells were seeded for in a 96 well plate (Thermo Fisher, Waltham, USA) with 10,000 cells per well. […] The cells were tested after 24, 48 and 72 hours using (Thiazolyl Blue Tetrazolium Bromide, MOLEQULE-ON) MTT assay.
(§2) Cultured media along with NPs were removed from 96 well plates and the cells were washed with 1×PBS.
(§3) The statistical analysis was done for determining the MTT cytotoxicity assay, using an unpaired two-way ANOVA (GraphPad Prism software), P-value is set at <0.05 (* if P≤0.05, ** if P≤0.01, *** if P≤0.001, **** if P≤0.0001) were considered statistically significant. The results were calculated from different three experiments.

MCF-7 cells = assay: Imaging of treated cells by light microscopy, MCF-7; assay type: cell-based, Human; conditions: 200 or 400 μg/mL, 48 h, light microscope
Method: (§4) The cells were observed under the light microscope after each time point to evaluate the morphological changes and study the NPs effect on cell proliferation without fixation. The images were taken by light microscope (TS100F Eclipse, Nikon, Tokyo, Japan) that can work with a digital camera and combined with its Nikon microscope program.
(§5) The effect of nanocomposites on cell morphology was imaged by using a light microscope after each time point. MCF-7 cells and HFF-1 cells were treated with either 200 or 400 μg/mL for 48 h to evaluate the average morphological changes. […] In the microscopy images, the magnification was ×100 and the scale bar represents 100 μm.

[2] = tested on: MCF-7 (Human Breast Cancer) cells; assay: Cytotoxicity assay by MTT, MCF-7 cells; assay type: cell-based
Method: as §1, §2, §3
The cytotoxicity study was performed to evaluate the toxicity of CeO2 nanoparticles against breast cancer cell line (MCF-7) and a non-cancerous cell line of human foreskin fibroblast (HFF-1). Different concentrations were applied (see Table 1) for 24, 48 and 72 hours, then, cytotoxicity was measured by MTT assay after each period of treatment. The data were plotted in scattered graphs using excel to calculate the EC50 values from the exponential trendline generated equation. The statistical significance with the p value and standard deviation were analyzed by two-way ANOVA test in GraphPad, Prism software. […] In addition, EC50 values were calculated to estimate the half maximal cytotoxic effect after each time point.

HFF-1 cells = assay: Imaging of treated cells by light microscopy, HFF-1; assay type: cell-based, Human; conditions: 200 or 400 μg/mL, 48 h, light microscope
Method: as §4, §5

SMILES | EC50 Value of treated HFF-1 cells, 24 h ([1]; HFF-1, MTT, 24 h treatment) [µg/mL] | EC50 Value of treated HFF-1 cells, 48 h ([1]; HFF-1, MTT, 48 h treatment) [µg/mL] | EC50 Value of treated HFF-1 cells, 72 h ([1]; HFF-1, MTT, 72 h treatment) [µg/mL] | effect on cell morphology and proliferation, MCF-7 (MCF-7 cells) | EC50 Value of treated MCF-7 cells, 24 h ([2]; MCF-7, MTT, 24 h treatment) [µg/mL] | EC50 Value of treated MCF-7 cells, 48 h ([2]; MCF-7, MTT, 48 h treatment) [µg/mL] | EC50 Value of treated MCF-7 cells, 72 h ([2]; MCF-7, MTT, 72 h treatment) [µg/mL] | effect on cell morphology and proliferation, HFF-1 (HFF-1 cells) | cytotoxic efficacy against HFF-1 cells (in words) ([1]; MTT, 24-72 h) | cytotoxic efficacy against MCF-7 cells (in words) ([2]; MTT, 24-72 h)
N.N.[Cl][Pt][Cl] [cisplatin] | 52.3 | 12.62 | 6.58 | cell death morphological structures | 21.58 | 8.03 | 3.12 | cell death morphological structures | – | –
COc1cc(/C=C/C(=O)CC(=O)/C=C/c2ccc(O)c(OC)c2)ccc1O [curcumin] | – | – | – | slightly affected | – | – | – | slightly affected | less efficacy | lowest efficacy with high cell viability percentages; also recorded: rapidly enhanced the cell growth
